Columns and labels:
[1] = target: T1, Nuclear receptor ROR-gamma (Mus musculus, UniProt P51450); assay: Inverse agonist activity at RORgammat in mouse Th17 cells assessed as effect on cell differentiation measured as IL-17 level after 3 days by ELISA; format: cell-based
T1 sequence (P51450 whole entry): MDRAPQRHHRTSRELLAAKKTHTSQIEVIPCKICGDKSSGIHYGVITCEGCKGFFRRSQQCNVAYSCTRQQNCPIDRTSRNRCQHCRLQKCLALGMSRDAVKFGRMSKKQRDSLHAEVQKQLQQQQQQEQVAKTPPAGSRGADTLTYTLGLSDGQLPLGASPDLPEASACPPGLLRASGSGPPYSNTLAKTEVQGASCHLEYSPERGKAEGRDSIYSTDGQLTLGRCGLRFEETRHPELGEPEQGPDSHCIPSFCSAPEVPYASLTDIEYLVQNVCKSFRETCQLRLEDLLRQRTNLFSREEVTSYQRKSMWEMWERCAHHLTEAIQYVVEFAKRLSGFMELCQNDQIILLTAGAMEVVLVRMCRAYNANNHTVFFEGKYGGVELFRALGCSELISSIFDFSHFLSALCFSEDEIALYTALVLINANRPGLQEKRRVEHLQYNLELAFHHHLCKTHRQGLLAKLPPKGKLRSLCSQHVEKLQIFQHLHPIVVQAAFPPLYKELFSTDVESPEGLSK

[2] = target: T2, Nuclear receptor ROR-gamma (Homo sapiens, UniProt P51449)
T2 sequence (P51449 whole entry): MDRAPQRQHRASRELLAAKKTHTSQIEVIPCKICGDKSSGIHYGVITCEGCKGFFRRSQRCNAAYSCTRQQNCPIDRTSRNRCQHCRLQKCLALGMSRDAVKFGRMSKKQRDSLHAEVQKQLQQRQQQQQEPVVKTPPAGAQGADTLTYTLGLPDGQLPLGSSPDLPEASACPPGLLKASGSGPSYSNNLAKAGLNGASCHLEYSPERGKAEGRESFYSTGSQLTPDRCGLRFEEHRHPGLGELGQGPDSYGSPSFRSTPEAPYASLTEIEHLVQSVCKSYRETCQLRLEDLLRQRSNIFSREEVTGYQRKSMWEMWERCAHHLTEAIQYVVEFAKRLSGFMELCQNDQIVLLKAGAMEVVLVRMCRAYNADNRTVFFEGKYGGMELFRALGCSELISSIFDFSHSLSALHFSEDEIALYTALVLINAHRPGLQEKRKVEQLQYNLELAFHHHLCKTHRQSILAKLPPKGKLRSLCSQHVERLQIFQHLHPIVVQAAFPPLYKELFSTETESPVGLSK
Description: Inverse agonist activity at biotinylated human RORgammat expressed in Escherichia coli BL21 assessed as effect on recruitment of SRC1/2 after 1 hr by dual-FRET assay

[3] = target: T2, Nuclear receptor ROR-gamma; remark: listed apart in the source
Description: Inverse agonist activity at biotinylated human RORgammat LBD expressed in Escherichia coli BL21 assessed as inhibition of SRC1 recruitment after 1 hr by FRET assay in presence of N-(2-chloro-6-fluorobenzyl)-N-((2'-methoxy-[1,1'-biphenyl]-4-yl)methyl)benzenesulfonamide

[4] = target: T3, Nuclear receptor ROR-gamma (Homo sapiens) (UniProt P51449)
T3 sequence (whole entry): T2 sequence (P51449 whole entry)
Description: Binding affinity to human RORgammat expressed in Escherichia coli BL21 assessed as melting temperature by thermal shift assay

Row | Structure (SMILES) | IC50 [1] | also measured
1 | CCS(=O)(=O)c1ccc(CC(=O)Nc2ccc(NCCc3ccc(C(F)(F)F)cc3)c(Cl)c2)cc1 | 1020 nM | 
2 | CCS(=O)(=O)c1ccc(CC(=O)Nc2ccc(CNCc3ccc(C(F)(F)F)cc3)cc2)cc1 | > 10000 nM | 
3 | CCS(=O)(=O)c1ccc(CC(=O)Nc2ccc3c(ccn3CCc3ccc(C#N)cc3)c2)cc1 | 457 nM | 
4 | CCCN(Cc1ccc(C)cc1)Cc1ccc(NC(=O)Cc2ccc(S(=O)(=O)CC)cc2)cc1 |  | EC50 [2]: 25 nM; IC50 [3]: > 25000 nM
5 | CCCN(CCc1ccc(C(F)(F)F)cc1)c1ccc(NC(=O)Cc2ccc(S(=O)(=O)CC)cc2)cc1 | 733 nM | 
6 | CCS(=O)(=O)c1ccc(CC(=O)Nc2nc(-c3cc(Cl)ccc3Cl)cs2)cc1 |  | IC50 [2]: 1000 nM; ΔTm [4]: 7.1 °C; IC50 [3]: 1000 nM

Continued by falling IC50 [1], values first:

Row | IC50 [1] | Structure (SMILES) | also measured
7 | 320 nM | CCCN(Cc1ccc(NC(=O)Cc2ccc(S(=O)(=O)CC)cc2)cc1)Cc1ccc(C(F)(F)F)cc1 | 
8 | 164 nM | CCS(=O)(=O)c1ccc(CC(=O)Nc2ccc3c(ccn3CCc3ccc(Cl)cc3)c2)cc1 | 
9 | 70 nM | CCS(=O)(=O)c1ccc(CC(=O)Nc2ccc3c(ccn3CCc3ccc(OC(C)C)cc3)c2)cc1 | 
10 | 40 nM | CCS(=O)(=O)c1ccc(CC(=O)Nc2ccc3c(ccn3CCc3ccc(Cl)c(Cl)c3)c2)cc1 | 
11 | 31 nM | CCS(=O)(=O)c1ccc(CC(=O)Nc2ccc3c(ccn3CCc3ccc(C(F)(F)F)cc3)c2)cc1 | 
12 | 9 nM | CCS(=O)(=O)c1ccc(CC(=O)Nc2ccc3c(ccn3CCc3ccc(Cl)cc3Cl)c2)cc1 | 

Source: ChEMBL document CHEMBL3108708, “Discovery of Tertiary Amine and Indole Derivatives as Potent RORγt Inverse Agonists” (ACS Med Chem Lett, 2014)
